Here are results for 25 substances from patent US20220259593A1, “CONTROL OF MAMMALIAN GENE DOSAGE USING CRISPR” (The Regents of the University of California, priority 2019, published 2022).

The series deals with K562 CRISPRi cells. Briefly: Perturb-seq pooled growth measurement (sgRNA counts, growth phenotype γ, relative activity). The class given is cell-based, human. Particulars: sequencing read counts; for Perturb-seq pooled growth sgRNA counts, d5: 5 days of growth (day seven after transduction); for Perturb-seq pooled growth sgRNA counts, d10: 10 days of growth (day twelve after transduction); for Perturb-seq pooled growth sgRNA counts, T0: T0 = day two after transduction. The text has this:
Finally, we sought to use intermediate-activity sgRNAs to explore relationships between expression levels of various genes and the resulting cellular phenotypes. To simultaneously measure gene expression levels and obtain rich phenotypes for a variety of sgRNA series, we used Perturb-seq, an experimental strategy that enables matched capture of the transcriptome and the identity of an expressed sgRNA for each individual cell in pools of cells (27, 31-33) (FIG. 12A). […] In addition to the single-cell transcriptomes, we measured bulk growth phenotypes conferred by sgRNAs in these cells.
To measure the growth rate defects conferred by each sgRNA for comparison with the transcriptional phenotypes, samples of 500,000 transduced cells were taken from the same transduced cell population used in the Perturb-seq experiment on days two, seven, and twelve after transduction. Genomic DNA was extracted using the Nucleospin Blood kit (Macherey-Nagel) and sgRNA amplicons were prepared as described previously and above (19), albeit with no genomic DNA digestion or gel purification, and sequenced on HiSeq 4000 as described above for the other screens. Growth phenotypes were calculated by comparing normalized sgRNA abundances at day seven and twelve to those at day two, as described above. […] Relative sgRNA activities measured at day seven (five days of growth) were used to assign sgRNA activities in further analysis.

Take “ATP5E_−_57607036.23-P1P2_00: sgRNA targeting ATP5E, GGTGTCCAGGGGCACTCTGT, SEQ ID NO: 151 (listed as DNA, chemistry not fully specified)”: the “Perturb-seq pooled growth sgRNA counts, d5” value was 12109; the “Perturb-seq pooled growth sgRNA counts, d10” value is on record as 9475; the “Perturb-seq pooled growth sgRNA counts, T0” value is given as 8197.

Turning to “ATP5E_−_57607036.23-P1P2_01: sgRNA targeting ATP5E, GGTGTCCTGGGGCACTCTGT, SEQ ID NO: 152 (listed as DNA, chemistry not fully specified)”, the “Perturb-seq pooled growth sgRNA counts, d5” value is on record as 10487; the “Perturb-seq pooled growth sgRNA counts, d10” value was found to be 8806; the “Perturb-seq pooled growth sgRNA counts, T0” value worked out at 7774.

With “ATP5E_−_57607036.23-P1P2_04: sgRNA targeting ATP5E, GGTGTCCAGGAGCACTCTGT, SEQ ID NO: 154 (listed as DNA, chemistry not fully specified)”, the “Perturb-seq pooled growth sgRNA counts, d5” value was determined as 13256; the “Perturb-seq pooled growth sgRNA counts, d10” value amounted to 14860; the “Perturb-seq pooled growth sgRNA counts, T0” value stood at 7209.

As to “ATP5E_−_57607036.23-P1P2_14: sgRNA targeting ATP5E, GGTGTCCAGGGGCACTGTGT, SEQ ID NO: 155 (listed as DNA, chemistry not fully specified)”, the “Perturb-seq pooled growth sgRNA counts, d5” value was found to be 10750; the “Perturb-seq pooled growth sgRNA counts, d10” value was 15257; the “Perturb-seq pooled growth sgRNA counts, T0” value amounted to 4611.

As for “ATP5E_−_57607036.23-P1P2_16: sgRNA targeting ATP5E, GGTGTCCAGGGGCGCTCTGT, SEQ ID NO: 153 (listed as DNA, chemistry not fully specified)”, the “Perturb-seq pooled growth sgRNA counts, d5” value came to 9571; the “Perturb-seq pooled growth sgRNA counts, d10” value turned out to be 9964; the “Perturb-seq pooled growth sgRNA counts, T0” value came to 6210.

In the case of “BCR_+_23523092.23-P1P2_00: sgRNA targeting BCR, GCGCGCGGGGCCCGTCTCAG, SEQ ID NO: 125 (listed as DNA, chemistry not fully specified)”, the “Perturb-seq pooled growth sgRNA counts, d5” value was 2250; the “Perturb-seq pooled growth sgRNA counts, d10” value amounted to 2333; the “Perturb-seq pooled growth sgRNA counts, T0” value turned out to be 9644.

As for “BCR_+_23523092.23-P1P2_04: sgRNA targeting BCR, GCGCGCGGAGCCCGTCTCAG, SEQ ID NO: 127 (listed as DNA, chemistry not fully specified)”, the “Perturb-seq pooled growth sgRNA counts, d5” value was 1660; the “Perturb-seq pooled growth sgRNA counts, d10” value is given as 2119; the “Perturb-seq pooled growth sgRNA counts, T0” value was 5355.

In the case of “BCR_+_23523092.23-P1P2_05: sgRNA targeting BCR, GCGCGCGGCGCCCGTCTCAG, SEQ ID NO: 128 (listed as DNA, chemistry not fully specified)”, the “Perturb-seq pooled growth sgRNA counts, d5” value amounted to 12165; the “Perturb-seq pooled growth sgRNA counts, d10” value is 15537; the “Perturb-seq pooled growth sgRNA counts, T0” value stood at 13439.

Consider “BCR_+_23523092.23-P1P2_07: sgRNA targeting BCR, GCGCGCGGGGCTCGTCTCAG, SEQ ID NO: 126 (listed as DNA, chemistry not fully specified)”, for which the “Perturb-seq pooled growth sgRNA counts, d5” value worked out at 1744; the “Perturb-seq pooled growth sgRNA counts, d10” value stood at 2183; the “Perturb-seq pooled growth sgRNA counts, T0” value was 8081.

Turning to “BCR_+_23523092.23-P1P2_13: sgRNA targeting BCR, GCGCGCGGGGCCCATCTCAG, SEQ ID NO: 130 (listed as DNA, chemistry not fully specified)”, the “Perturb-seq pooled growth sgRNA counts, d5” value was 5668; the “Perturb-seq pooled growth sgRNA counts, d10” value amounted to 7063; the “Perturb-seq pooled growth sgRNA counts, T0” value is listed as 4304.

As for “BCR_+_23523092.23-P1P2_15: sgRNA targeting BCR, GCGCGCGGGGCCCGTCGCAG, SEQ ID NO: 129 (listed as DNA, chemistry not fully specified)”, the “Perturb-seq pooled growth sgRNA counts, d5” value was 6829; the “Perturb-seq pooled growth sgRNA counts, d10” value is 8085; the “Perturb-seq pooled growth sgRNA counts, T0” value came to 5377.

Turning to “CAD_+_27440280.23-P1P2_00: sgRNA targeting CAD, GGCTGGAGAGAAGCCGGGCG, SEQ ID NO: 20 (listed as DNA, chemistry not fully specified)”, the “Perturb-seq pooled growth sgRNA counts, d5” value is listed as 2464; the “Perturb-seq pooled growth sgRNA counts, d10” value is 785; the “Perturb-seq pooled growth sgRNA counts, T0” value came out at 8671.

Regarding “CAD_+_27440280.23-P1P2_03: sgRNA targeting CAD, GGCTGGTGAGAAGCCGGGCG, SEQ ID NO: 102 (listed as DNA, chemistry not fully specified)”, the “Perturb-seq pooled growth sgRNA counts, d5” value is given as 2087; the “Perturb-seq pooled growth sgRNA counts, d10” value came to 907; the “Perturb-seq pooled growth sgRNA counts, T0” value turned out to be 7290.

In the case of “CAD_+_27440280.23-P1P2_06: sgRNA targeting CAD, GGCTGGAGAGTAGCCGGGCG, SEQ ID NO: 104 (listed as DNA, chemistry not fully specified)”, the “Perturb-seq pooled growth sgRNA counts, d5” value is listed as 4967; the “Perturb-seq pooled growth sgRNA counts, d10” value is on record as 4365; the “Perturb-seq pooled growth sgRNA counts, T0” value was 6199.

For the substance “CAD_+_27440280.23-P1P2_07: sgRNA targeting CAD, GGCTGGAGCGAAGCCGGGCG, SEQ ID NO: 103 (listed as DNA, chemistry not fully specified)”, the “Perturb-seq pooled growth sgRNA counts, d5” value amounted to 6008; the “Perturb-seq pooled growth sgRNA counts, d10” value was 4019; the “Perturb-seq pooled growth sgRNA counts, T0” value was determined as 13241.

Turning to “CAD_+_27440280.23-P1P2_13: sgRNA targeting CAD, GGCTGGAGAGAAGCCTGGCG, SEQ ID NO: 105 (listed as DNA, chemistry not fully specified)”, the “Perturb-seq pooled growth sgRNA counts, d5” value stood at 17097; the “Perturb-seq pooled growth sgRNA counts, d10” value came out at 19130; the “Perturb-seq pooled growth sgRNA counts, T0” value came out at 11874.

On to “CDC23_−_137548987.23-P1P2_00: sgRNA targeting CDC23, GACAGCCACCGGGACCATGG, SEQ ID NO: 18 (listed as DNA, chemistry not fully specified)”, for which the “Perturb-seq pooled growth sgRNA counts, d5” value was determined as 757; the “Perturb-seq pooled growth sgRNA counts, d10” value was 854; the “Perturb-seq pooled growth sgRNA counts, T0” value was found to be 8182.

As for “CDC23_−_137548987.23-P1P2_02: sgRNA targeting CDC23, GACAGCTACCGGGACCATGG, SEQ ID NO: 98 (listed as DNA, chemistry not fully specified)”, the “Perturb-seq pooled growth sgRNA counts, d5” value was determined as 832; the “Perturb-seq pooled growth sgRNA counts, d10” value amounted to 1192; the “Perturb-seq pooled growth sgRNA counts, T0” value was 7014.

Take “CDC23_−_137548987.23-P1P2_04: sgRNA targeting CDC23, GACAGCCAACGGGACCATGG, SEQ ID NO: 100 (listed as DNA, chemistry not fully specified)”: the “Perturb-seq pooled growth sgRNA counts, d5” value was 1646; the “Perturb-seq pooled growth sgRNA counts, d10” value amounted to 1646; the “Perturb-seq pooled growth sgRNA counts, T0” value was 8019.

On to “CDC23_−_137548987.23-P1P2_08: sgRNA targeting CDC23, GACAGCCATCGGGACCATGG, SEQ ID NO: 99 (listed as DNA, chemistry not fully specified)”, for which the “Perturb-seq pooled growth sgRNA counts, d5” value is 1531; the “Perturb-seq pooled growth sgRNA counts, d10” value is reported as 1710; the “Perturb-seq pooled growth sgRNA counts, T0” value is recorded as 8986.

For the substance “CDC23_−_137548987.23-P1P2_11: sgRNA targeting CDC23, GACAGCCACCGGGACCACGG, SEQ ID NO: 101 (listed as DNA, chemistry not fully specified)”, the “Perturb-seq pooled growth sgRNA counts, d5” value was determined as 14320; the “Perturb-seq pooled growth sgRNA counts, d10” value was 16682; the “Perturb-seq pooled growth sgRNA counts, T0” value is on record as 12707.

In the case of “COX11_+_53045977.23-P1P2_00: sgRNA targeting COX11, GGCTCTGGCGTCCTGGATGG, SEQ ID NO: 141 (listed as DNA, chemistry not fully specified)”, the “Perturb-seq pooled growth sgRNA counts, d5” value is 11785; the “Perturb-seq pooled growth sgRNA counts, d10” value was 6198; the “Perturb-seq pooled growth sgRNA counts, T0” value worked out at 8084.

As for “COX11_+_53045977.23-P1P2_03: sgRNA targeting COX11, GGCTCTGTCGTCCTGGATGG, SEQ ID NO: 142 (listed as DNA, chemistry not fully specified)”, the “Perturb-seq pooled growth sgRNA counts, d5” value was determined as 16852; the “Perturb-seq pooled growth sgRNA counts, d10” value was 9184; the “Perturb-seq pooled growth sgRNA counts, T0” value was determined as 11251.

Take “COX11_+_53045977.23-P1P2_04: sgRNA targeting COX11, GGCTCTGGCGCCCTGGATGG, SEQ ID NO: 143 (listed as DNA, chemistry not fully specified)”: the “Perturb-seq pooled growth sgRNA counts, d5” value is on record as 8343; the “Perturb-seq pooled growth sgRNA counts, d10” value was determined as 5047; the “Perturb-seq pooled growth sgRNA counts, T0” value was 5234.

In the case of “COX11_+_53045977.23-P1P2_05: sgRNA targeting COX11, GGCTCTGGCGTCTTGGATGG, SEQ ID NO: 144 (listed as DNA, chemistry not fully specified)”, the “Perturb-seq pooled growth sgRNA counts, d5” value is recorded as 10766; the “Perturb-seq pooled growth sgRNA counts, d10” value is 11496; the “Perturb-seq pooled growth sgRNA counts, T0” value was 5205.
